According to patent US20160022718A1, “METHODS OF LOWERING BLOOD PRESSURE” (LEXICON PHARMACEUTICALS, INC., priority 2010, published 2016):

System: patients with type 2 diabetes mellitus
Assay: randomized, double-blind, placebo controlled Phase 2a clinical trial, 28 days once daily oral dosing
Type: in vivo, human
Details: for Change in Weight, change from baseline / Seated Diastolic BP, change from baseline / Seated Systolic BP, change from baseline / Serum Triglyceride, change from baseline: four-week treatment; for Change in Weight, change from baseline: placebo −2.2; for Seated Diastolic BP, change from baseline: placebo −2.9; for Seated Systolic BP, change from baseline: placebo −4.3; for Serum Triglyceride, change from baseline: placebo −20.2; for reduction of average percent HbA1c after four weeks of dosing: placebo 0.49; for reduction in fasting plasma glucose level at week four: placebo 15.1 mg/dl
Method: Certain aspects of this invention may be understood with reference to the figures, which provide results obtained from a randomized, double-blind, placebo controlled Phase 2a clinical trial, wherein 150 mg and 300 mg doses of a compound of the invention were orally administered once daily to patients with type 2 diabetes mellitus.
This invention is based, in part, on findings—provided herein—obtained from a randomized, double-blind, placebo controlled Phase 2a clinical trial, wherein 150 mg/day and 300 mg/day doses of a dual SGLT1/2 inhibitor were administered to patients with type 2 diabetes mellitus. The dual SGLT1/2 inhibitor was (2S,3R,4R,5S,6R)-2-(4-chloro-3-(4-ethoxybenzyl)phenyl)-6-(methylthio)tetrahydro-2H-pyran-3,4,5-triol, which has the structure:
Patients (n=36) with type 2 diabetes mellitus received one of two oral doses of (2S,3R,4R,5S,6R)-2-(4-chloro-3-(4-ethoxybenzyl)phenyl)-6-(methylthio)tetrahydro-2H-pyran-3,4,5-triol, given as 150 mg or 300 mg once daily, or matching placebo, for 28 days.
In this study, patients on metformin were taken off of the drug 16 days prior to day 0, the day dosing first began.

[1] = both treatment groups (150 mg/day and 300 mg/day)

CCOc1ccc(Cc2cc([C@@H]3O[C@H](SC)[C@@H](O)[C@H](O)[C@H]3O)ccc2Cl)cc1 [(2S,3R,4R,5S,6R)-2-(4-chloro-3-(4-ethoxybenzyl)phenyl)-6-(methylthio)tetrahydro-2H-pyran-3,4,5-triol]
Change in Weight, change from baseline (150 mg (n = 12)): −3.4%
Seated Diastolic BP, change from baseline (150 mg (n = 12)): −5.8 mmHg
Seated Systolic BP, change from baseline (150 mg (n = 12)): −10.3 mmHg
Serum Triglyceride, change from baseline (150 mg (n = 12)): -66.6 mg/dL
reduction of average percent HbA1c after four weeks of dosing (150 mg dose group, p=0.036, baseline 8.22%): 1.15%
reduction in fasting plasma glucose level at week four (150 mg dose group): 53.4 mg/dL
dose-limiting toxicities (150 mg or 300 mg once daily, 28 days): no evidence of dose-limiting toxicities was observed
adverse events (150 mg or 300 mg once daily, 28 days, evenly distributed across all dose groups, including placebo): generally mild
insulin sensitivity, homeostatic model assessment (HOMA) (FIG. 4) (150 mg/day and 300 mg/day groups vs placebo, day 27): improved insulin sensitivity
mean plasma glucose AUC (FIG. 3) (150 mg/day and 300 mg/day groups, after one day of treatment): statistically significant decreases
Change in Weight, change from baseline (300 mg (n = 12)): −3.7%
Seated Diastolic BP, change from baseline (300 mg (n = 12)): −5.3 mmHg
Seated Systolic BP, change from baseline (300 mg (n = 12)): −13.1 mmHg
Serum Triglyceride, change from baseline (300 mg (n = 12)): -62.8 mg/dL
reduction of average percent HbA1c after four weeks of dosing (300 mg dose group, p=0.017, baseline 8.50%): 1.25%
percentage of patients achieving fasting plasma glucose levels of <105 mg/dl at week four (300 mg dose group, p=0.037 vs placebo): 42%
reduction in fasting plasma glucose level at week four (300 mg dose group): 65.9 mg/dL
share of patients with HbA1c levels reduced to less than or equal to 7% (both dose groups (150 mg and 300 mg), four weeks): half
glucosuria over the 28-day dosing period compared to placebo (both dose levels (150 mg and 300 mg once daily, oral), preliminary data): significant and sustained glucosuria
glucose tolerance vs placebo group (FIG. 2) [1]: greater glucose tolerance
mean arterial pressure, day 28 compared to baseline (FIG. 10) [1]: decreased
post-prandial glucose levels compared to placebo (FIG. 5) [1]: rapid, statistically significant decrease
